Several values for one entry are separate records, joined by “and”; a condition that tells them apart may be missing. Identical values can stand only once.

The test system of assay [1] is Ba/F3 cells expressing KIF5B–RET^G810C. The assay can be described thus: Growth inhibition assay in Ba/F3 cells (CellTiter-Glo, 72 h). It counts as cell-based. Conditions: replicate Sets 1-3. In general terms: ATP-based viability assays read luminescence as a measure of living cells.
Assay [2] deals with T1, panel of 255 (vepafestinib) or 256 (all other inhibitors) recombinant kinases (Homo sapiens, UniProt Q15375).
T1 construct: purchased Carna Biosciences
Put plainly: Kinase selectivity profiling at a single concentration (Carna Biosciences). It counts as biochemical. Conditions: 22 nM.

For assay [3], the target named is T2, panel of 255 (vepafestinib) or 256 (all other inhibitors) recombinant kinases (Homo sapiens, UniProt P36888).
T2 construct: purchased Carna Biosciences
T2 sequence (P36888 27-993): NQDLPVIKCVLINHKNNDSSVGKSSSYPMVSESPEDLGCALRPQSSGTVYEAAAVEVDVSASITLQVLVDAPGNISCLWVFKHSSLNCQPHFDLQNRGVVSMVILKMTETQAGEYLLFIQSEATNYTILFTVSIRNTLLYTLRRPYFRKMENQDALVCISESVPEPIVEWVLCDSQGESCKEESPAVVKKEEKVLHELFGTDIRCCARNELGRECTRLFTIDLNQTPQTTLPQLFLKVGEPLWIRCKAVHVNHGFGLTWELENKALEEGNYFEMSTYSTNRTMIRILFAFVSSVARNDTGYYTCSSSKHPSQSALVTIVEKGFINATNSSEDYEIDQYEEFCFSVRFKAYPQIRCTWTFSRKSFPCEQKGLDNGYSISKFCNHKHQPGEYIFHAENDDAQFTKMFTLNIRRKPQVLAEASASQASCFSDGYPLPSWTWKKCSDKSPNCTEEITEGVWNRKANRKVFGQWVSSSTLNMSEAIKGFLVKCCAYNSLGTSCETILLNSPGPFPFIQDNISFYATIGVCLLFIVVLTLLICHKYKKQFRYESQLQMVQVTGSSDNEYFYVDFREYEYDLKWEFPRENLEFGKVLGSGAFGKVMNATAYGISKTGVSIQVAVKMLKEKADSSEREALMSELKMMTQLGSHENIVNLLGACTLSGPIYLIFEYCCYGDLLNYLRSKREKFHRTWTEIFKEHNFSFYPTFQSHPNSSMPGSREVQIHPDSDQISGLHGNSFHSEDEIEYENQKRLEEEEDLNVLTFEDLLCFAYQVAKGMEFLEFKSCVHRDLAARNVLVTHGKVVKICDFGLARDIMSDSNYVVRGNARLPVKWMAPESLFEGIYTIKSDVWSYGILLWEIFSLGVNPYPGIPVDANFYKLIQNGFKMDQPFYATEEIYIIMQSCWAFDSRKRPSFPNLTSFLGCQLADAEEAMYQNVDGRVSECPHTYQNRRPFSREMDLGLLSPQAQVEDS
The assay is described as above. It counts as biochemical.

Assay [4] concerns the target T3, panel of 255 (vepafestinib) or 256 (all other inhibitors) recombinant kinases (Homo sapiens, UniProt P16234).
T3 construct: purchased Carna Biosciences
The assay is described as above. It counts as biochemical.

In assay [5] the target is T4, panel of 255 (vepafestinib) or 256 (all other inhibitors) recombinant kinases (Homo sapiens, UniProt Q08345).
T4 construct: purchased Carna Biosciences
T4 sequence (Q08345 19-913): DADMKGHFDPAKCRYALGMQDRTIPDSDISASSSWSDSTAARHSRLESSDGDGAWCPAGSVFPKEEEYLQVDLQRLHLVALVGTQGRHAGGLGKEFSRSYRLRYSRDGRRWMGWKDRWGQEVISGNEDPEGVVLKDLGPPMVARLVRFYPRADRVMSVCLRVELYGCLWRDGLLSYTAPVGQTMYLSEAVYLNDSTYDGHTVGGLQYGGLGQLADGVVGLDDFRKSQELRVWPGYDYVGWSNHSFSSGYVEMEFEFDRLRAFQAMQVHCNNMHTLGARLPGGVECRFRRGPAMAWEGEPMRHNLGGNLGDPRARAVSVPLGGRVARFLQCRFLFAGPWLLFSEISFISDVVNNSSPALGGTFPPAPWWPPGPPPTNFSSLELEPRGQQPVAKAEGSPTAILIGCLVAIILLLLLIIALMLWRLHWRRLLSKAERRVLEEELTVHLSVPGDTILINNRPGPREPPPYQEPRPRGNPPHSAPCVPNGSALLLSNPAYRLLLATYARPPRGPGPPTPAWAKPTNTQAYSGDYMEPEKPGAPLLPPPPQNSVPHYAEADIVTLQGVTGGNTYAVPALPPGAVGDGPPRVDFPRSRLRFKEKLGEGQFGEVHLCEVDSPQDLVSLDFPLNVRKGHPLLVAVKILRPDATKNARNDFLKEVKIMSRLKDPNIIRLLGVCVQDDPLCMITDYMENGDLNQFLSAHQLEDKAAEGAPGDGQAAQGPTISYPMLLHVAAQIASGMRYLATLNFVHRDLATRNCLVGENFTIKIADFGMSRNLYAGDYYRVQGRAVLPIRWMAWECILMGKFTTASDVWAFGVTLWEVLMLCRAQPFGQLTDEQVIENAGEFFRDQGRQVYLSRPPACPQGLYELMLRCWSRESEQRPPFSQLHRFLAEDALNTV
The description is as above. It counts as biochemical.

For assay [6], the target named is T5, panel of 255 (vepafestinib) or 256 (all other inhibitors) recombinant kinases (Homo sapiens, UniProt P09619).
T5 construct: purchased Carna Biosciences
T5 sequence (P09619 33-1106): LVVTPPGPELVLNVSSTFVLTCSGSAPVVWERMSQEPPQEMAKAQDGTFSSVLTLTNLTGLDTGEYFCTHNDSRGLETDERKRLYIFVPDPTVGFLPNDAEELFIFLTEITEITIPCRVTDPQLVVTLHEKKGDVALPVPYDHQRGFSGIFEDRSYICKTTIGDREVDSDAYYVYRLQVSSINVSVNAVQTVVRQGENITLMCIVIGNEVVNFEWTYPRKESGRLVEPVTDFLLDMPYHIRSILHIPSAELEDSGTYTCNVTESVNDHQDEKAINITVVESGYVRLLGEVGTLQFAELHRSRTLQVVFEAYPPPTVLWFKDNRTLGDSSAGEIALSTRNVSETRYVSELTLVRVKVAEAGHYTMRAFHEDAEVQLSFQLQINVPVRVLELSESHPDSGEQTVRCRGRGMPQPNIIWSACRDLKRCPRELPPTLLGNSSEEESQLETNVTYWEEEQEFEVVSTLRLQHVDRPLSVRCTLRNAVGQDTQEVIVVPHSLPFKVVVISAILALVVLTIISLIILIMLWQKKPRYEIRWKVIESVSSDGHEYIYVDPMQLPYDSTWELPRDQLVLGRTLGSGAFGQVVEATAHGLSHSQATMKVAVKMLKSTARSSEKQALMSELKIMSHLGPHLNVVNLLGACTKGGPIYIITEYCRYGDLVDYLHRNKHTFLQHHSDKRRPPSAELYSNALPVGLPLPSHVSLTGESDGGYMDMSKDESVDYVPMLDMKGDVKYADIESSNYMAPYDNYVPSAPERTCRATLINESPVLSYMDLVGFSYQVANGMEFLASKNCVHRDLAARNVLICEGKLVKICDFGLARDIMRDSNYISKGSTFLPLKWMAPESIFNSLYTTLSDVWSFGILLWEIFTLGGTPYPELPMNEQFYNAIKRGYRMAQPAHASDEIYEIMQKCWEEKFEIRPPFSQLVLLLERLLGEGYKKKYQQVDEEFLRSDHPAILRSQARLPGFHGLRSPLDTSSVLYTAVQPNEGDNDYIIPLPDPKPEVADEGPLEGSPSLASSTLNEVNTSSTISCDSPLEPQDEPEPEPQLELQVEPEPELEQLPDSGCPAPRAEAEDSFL
The description is as above. It counts as biochemical.

Assay [7] concerns the target T6, panel of 255 (vepafestinib) or 256 (all other inhibitors) recombinant kinases (Homo sapiens, UniProt P11362).
T6 construct: purchased Carna Biosciences
The assay is described as above. It counts as biochemical.

The target of assay [8] is T7, panel of 255 (vepafestinib) or 256 (all other inhibitors) recombinant kinases (Homo sapiens, UniProt P35916).
T7 construct: purchased Carna Biosciences
T7 sequence (P35916 25-1363): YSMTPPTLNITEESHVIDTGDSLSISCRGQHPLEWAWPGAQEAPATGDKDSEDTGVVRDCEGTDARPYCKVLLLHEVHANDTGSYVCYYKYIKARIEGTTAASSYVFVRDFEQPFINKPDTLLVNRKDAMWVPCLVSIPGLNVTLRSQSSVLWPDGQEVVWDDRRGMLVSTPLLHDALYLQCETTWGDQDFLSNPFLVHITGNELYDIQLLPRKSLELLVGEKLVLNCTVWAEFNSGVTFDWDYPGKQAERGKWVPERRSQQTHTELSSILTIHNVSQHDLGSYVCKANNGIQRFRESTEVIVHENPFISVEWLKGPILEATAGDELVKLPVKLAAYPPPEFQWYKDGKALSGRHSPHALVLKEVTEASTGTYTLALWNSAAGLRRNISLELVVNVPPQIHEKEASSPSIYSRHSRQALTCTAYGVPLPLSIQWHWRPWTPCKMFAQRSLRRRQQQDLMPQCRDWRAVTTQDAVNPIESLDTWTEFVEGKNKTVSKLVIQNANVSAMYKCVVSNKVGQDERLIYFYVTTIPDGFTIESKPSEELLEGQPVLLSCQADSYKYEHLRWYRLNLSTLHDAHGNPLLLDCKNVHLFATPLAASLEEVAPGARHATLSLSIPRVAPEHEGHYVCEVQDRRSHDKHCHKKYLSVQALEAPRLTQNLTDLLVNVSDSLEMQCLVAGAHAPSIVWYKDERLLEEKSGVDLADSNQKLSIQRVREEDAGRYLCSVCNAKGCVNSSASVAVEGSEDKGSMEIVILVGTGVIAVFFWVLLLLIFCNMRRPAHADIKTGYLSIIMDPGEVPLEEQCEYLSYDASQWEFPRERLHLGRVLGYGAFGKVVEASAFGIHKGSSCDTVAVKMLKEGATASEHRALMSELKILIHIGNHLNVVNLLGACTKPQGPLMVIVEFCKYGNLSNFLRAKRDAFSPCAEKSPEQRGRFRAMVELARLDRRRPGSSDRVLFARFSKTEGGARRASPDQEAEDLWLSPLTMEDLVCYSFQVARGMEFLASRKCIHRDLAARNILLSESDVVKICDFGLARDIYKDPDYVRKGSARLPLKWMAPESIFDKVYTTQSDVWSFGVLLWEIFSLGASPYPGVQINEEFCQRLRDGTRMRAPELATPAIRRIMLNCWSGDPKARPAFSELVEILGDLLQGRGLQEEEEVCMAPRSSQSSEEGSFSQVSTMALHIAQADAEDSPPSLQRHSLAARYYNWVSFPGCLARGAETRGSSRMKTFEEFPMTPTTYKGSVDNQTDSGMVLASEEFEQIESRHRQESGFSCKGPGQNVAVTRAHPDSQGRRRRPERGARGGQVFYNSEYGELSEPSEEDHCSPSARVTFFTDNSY
The assay is described as above. It counts as biochemical.

In assay [9] the target is T8, panel of 255 (vepafestinib) or 256 (all other inhibitors) recombinant kinases (Homo sapiens, UniProt Q06418).
T8 construct: purchased Carna Biosciences
The description is as above. It counts as biochemical. Conditions: 22 nM.

In assay [10] the target is T9, panel of 255 (vepafestinib) or 256 (all other inhibitors) recombinant kinases (Homo sapiens, UniProt P22607).
T9 construct: purchased Carna Biosciences
T9 sequence (P22607 23-806): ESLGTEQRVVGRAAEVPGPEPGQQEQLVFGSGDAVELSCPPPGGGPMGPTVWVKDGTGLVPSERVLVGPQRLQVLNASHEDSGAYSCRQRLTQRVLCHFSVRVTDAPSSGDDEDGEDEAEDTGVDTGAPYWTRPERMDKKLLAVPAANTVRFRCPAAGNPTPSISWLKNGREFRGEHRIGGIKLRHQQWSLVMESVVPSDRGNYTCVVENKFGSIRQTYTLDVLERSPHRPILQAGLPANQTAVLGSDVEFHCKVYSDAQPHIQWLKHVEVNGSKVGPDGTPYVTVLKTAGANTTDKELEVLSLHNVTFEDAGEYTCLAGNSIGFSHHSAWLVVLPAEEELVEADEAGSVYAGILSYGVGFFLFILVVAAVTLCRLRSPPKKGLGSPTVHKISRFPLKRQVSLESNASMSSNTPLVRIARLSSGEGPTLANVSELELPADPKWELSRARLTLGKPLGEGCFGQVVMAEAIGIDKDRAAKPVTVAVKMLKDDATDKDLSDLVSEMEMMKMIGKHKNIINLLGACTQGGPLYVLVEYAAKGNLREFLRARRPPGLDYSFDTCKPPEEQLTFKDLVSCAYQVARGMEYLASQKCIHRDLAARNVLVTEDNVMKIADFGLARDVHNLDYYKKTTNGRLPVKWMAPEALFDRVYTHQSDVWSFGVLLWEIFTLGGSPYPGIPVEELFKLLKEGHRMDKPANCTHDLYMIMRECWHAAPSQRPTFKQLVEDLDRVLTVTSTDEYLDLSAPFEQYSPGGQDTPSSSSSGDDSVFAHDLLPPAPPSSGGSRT
Described as above. It counts as biochemical.

The target in assay [11] is T10, panel of 255 (vepafestinib) or 256 (all other inhibitors) recombinant kinases (Homo sapiens, UniProt P07949).
T10 construct: purchased Carna Biosciences
The description is as above. It counts as biochemical.

Assay [12] deals with panel of 255 (vepafestinib) or 256 (all other inhibitors) recombinant kinases. The assay is described as above. It counts as biochemical. As to conditions: 256 kinases.
The target of assay [13] is T11, panel of 255 (vepafestinib) or 256 (all other inhibitors) recombinant kinases (Homo sapiens, UniProt P21802).
T11 construct: purchased Carna Biosciences
The description is as above. It counts as biochemical.

Assay [14] deals with T12, panel of 255 (vepafestinib) or 256 (all other inhibitors) recombinant kinases (Homo sapiens, UniProt O14757).
T12 construct: purchased Carna Biosciences
Described as above. It counts as biochemical. As to conditions: 22 nM.

Assay [15] addresses T13, panel of 255 (vepafestinib) or 256 (all other inhibitors) recombinant kinases (Homo sapiens, UniProt P35968).
T13 construct: purchased Carna Biosciences
The assay is described as above. It counts as biochemical. Conditions: 17 nM.

Assay [16] concerns LUAD-0057AS1 PDX. Put plainly: PDX efficacy study. As to conditions: 50 mg/kg QD.
In assay [17] the test system is ECLC5 xenografts. The assay can be described thus: Subcutaneous xenograft efficacy study. As to conditions: 100 mg/kg QD.
[18] abbreviates: Mus musculus, BaF3, Ba/3-KIF5B-RET-G810C.
[19] abbreviates: end of study, individual tumors.

Broadly, the GI50 is the concentration that inhibits growth by half. A lower GI50 goes with greater sensitivity of the cells. In the case of `COc1ccc(CN2C3CC2CN(c2ccc(-c4cc(OCC(C)(C)O)cn5ncc(C#N)c45)cn2)C3)cn1` [Selpercatinib], the GI50 in [1] (Ba/3-KIF5B-RET-G810C) is 201 nM and 181 nM; in assay [1] (setting [18]) it was 233 nM. For the same compound, the “% Inhibiton EPHA7” value in [2] stood at 26.3%. Moreover, the “% Inhibiton FLT3” value in assay [3] (22 nM) came out at 52.5%. For the same compound, the “% Inhibiton PDGFRα” value in [4] (22 nM) amounted to 28.7%. Moreover, in [5] (22 nM), the “% Inhibiton DDR1” value is reported as 18%. Moreover, in assay [6] (22 nM), the “% Inhibiton PDGFRβ” value amounted to 21.7%. Besides, the “% Inhibiton FGFR1” value in [7] (22 nM) worked out at 21.4%. For the same compound, in [8] (22 nM), the “% Inhibiton FLT4” value is 84.9%. Further, the “% Inhibiton TYRO3” value in [9] is listed as 38.2%. In addition, the “% Inhibiton FGFR3” value in assay [10] (22 nM) was determined as 35.9%. Further, the “% Inhibiton RET” value in assay [11] (22 nM) is 98.6%. Besides, in [12] (22 nM), the “kinases inhibited by >50%” value is on record as “three”. Besides, the “% Inhibiton FGFR2” value in [13] (22 nM) was 44.8%. The “% Inhibiton CHK1” value in assay [14] worked out at 15.2%.

For the compound `CO[C@]1(C(=O)N[C@@H](C)c2ccc(-n3cc(F)cn3)nc2)CC[C@H](c2nc(C)cc(Nc3cc(C)[nH]n3)n2)CC1` [Pralsetinib], the GI50 in assay [1] (Ba/3-KIF5B-RET-G810C) is 44.4 nM; in assay [1] (setting [18]), 66.9 nM. The “% Inhibiton FLT3” value in assay [3] (17 nM) was determined as 73.3%. Also, the “% Inhibiton PDGFRα” value in [4] (17 nM) is recorded as 57.1%. Further, the “% Inhibiton DDR1” value in assay [5] (17 nM) is listed as 72.1%. Besides, the “% Inhibiton PDGFRβ” value in [6] (17 nM) is given as 69.8%. In addition, in assay [7] (17 nM), the “% Inhibiton FGFR1” value was 57%. Also, the “% Inhibiton FLT4” value in assay [8] (17 nM) amounted to 74%. For the same compound, the “% Inhibiton KDR” value in [15] was determined as 27.4%. The “% Inhibiton FGFR3” value in assay [10] (17 nM) stood at 34.3%. In addition, in assay [11] (17 nM), the “% Inhibiton RET” value turned out to be 96.7%. Also, the “kinases inhibited by >50%” value in assay [12] (17 nM) was found to be 11. Also, the “% Inhibiton FGFR2” value in [13] (17 nM) is 29.4%.

Regarding `COc1cc2c(Nc3ccc(Br)cc3F)ncnc2cc1OCC1CCN(C)CC1` [Vandetanib], the “Area Under Curve of tumor growth, Mean” value in [16] is listed as -2007; in [17], -1273. Moreover, the Tumor volume was 143.69 mm3 (3×) and 139.24 mm3 (2×) and 136.86 mm3 and 132.84 mm3 and 124.41 mm3 in assay [16] (day 0, individual animals); 79.85 mm3 and 78.99 mm3 (2×) and 80.35 mm3 and 89.72 mm3 and 82.12 mm3 and 83.53 mm3 (2×) in [16] (day 3, individual animals); 65.45 mm3 (5×) and 66.76 mm3 (2×) and 69.46 mm3 in assay [16] (day 7, individual animals); 52.07 mm3 (2×) and 58.99 mm3 and 57.83 mm3 (3×) and 56.67 mm3 and 49.83 mm3 in assay [16] (day 10, individual animals); 52.07 mm3 (2×) and 55.52 mm3 and 57.83 mm3 (2×) and 56.67 mm3 and 49.83 mm3 in assay [16] (day 14, individual animals); 0 mm3 in assay [16] (day 19, individual animals). Moreover, the Tumor volume in assay [16] (day 23, individual animals) was 0 mm3; in [17] (day 0, individual animals) it was 83.83 mm3 (2×) and 88.56 mm3 and 87.03 mm3; in assay [17] (day 4, individual animals) it was 55.4 mm3 (2×) and 45.5 mm3 and 53.01 mm3 and 50.68 mm3; in assay [17] (day 7, individual animals), 42.25 mm3 and 37.7 mm3 and 44.53 mm3 and 41.37 mm3 and 39.37 mm3; in assay [17] (day 11, individual animals), 38.54 mm3 and 37.7 mm3 and 44.53 mm3 and 33.69 mm3 and 31.89 mm3; in assay [17] (day 14, individual animals) it was 36.02 mm3 and 36.86 mm3 and 35.19 mm3 and 28.86 mm3 and 23.59 mm3. Besides, the Tumor volume in assay [17] (day 19, individual animals) is 34.35 mm3 and 31 mm3 and 35.19 mm3 and 28.86 mm3 and 18.85 mm3; in [17] (day 22, individual animals) it was 0 mm3 (4×) and 29.39 mm3; in assay [17] (day 25, individual animals), 0 mm3. Further, the “Change in Tumor Volume” value in [16] (setting [19]) and in assay [17] (setting [19]) was -100% each time.

For the origin of these results see paper PMC10518257 (Nature Cancer, 2023).
